From patent US10450297B2, “Sulfonyl amide derivatives for the treatment of abnormal cell growth” (Pfizer, Inc., priority 2007, dated 2019)
Counter-ions that a name gives are not always drawn.

Molecular target: FAK kinase (catalytic construct FAK(410-689)) (Homo sapiens (Human), UniProt Q05397)
Test: FAKcd kinase ELISA (inhibition of poly-glu-tyr phosphorylation by FAK(410-689))
Assay type: biochemical
Details: 50 μM final ATP

FAK kinase (catalytic construct FAK(410-689)), sequence (Q05397 410-689): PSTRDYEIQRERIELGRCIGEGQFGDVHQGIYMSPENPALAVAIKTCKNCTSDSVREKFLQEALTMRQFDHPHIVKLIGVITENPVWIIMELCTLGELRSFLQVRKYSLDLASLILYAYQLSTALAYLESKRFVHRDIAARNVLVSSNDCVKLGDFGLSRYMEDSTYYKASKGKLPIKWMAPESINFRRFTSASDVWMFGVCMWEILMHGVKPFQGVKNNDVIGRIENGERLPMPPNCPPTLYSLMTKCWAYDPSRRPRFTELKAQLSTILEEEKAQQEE

In the case of CN(c1ncccc1CNc1nc(Nc2ccc(C(N)=O)cn2)ncc1C(F)(F)F)S(C)(=O)=O [Compound 59, 6-({4-[({2-[methyl(methylsulfonyl)amino]pyridin-3-yl}methyl)amino]-5-(trifluoromethyl)pyrimidin-2-yl}amino)nicotinamide], the IC50 is reported as 8.93 nM.

Work on Cc1cc(Nc2ncc(C(F)(F)F)c(NCc3nccnc3N(C)S(C)(=O)=O)n2)ccc1C(N)=O [Compound 338, 2-methyl-4-({4-[({3-[methyl(methylsulfonyl)amino]pyrazin-2-yl}methyl)amino]-5-(trifluoromethyl)pyrimidin-2-yl}amino)benzamide] yielded an IC50 of less than 0.595 nM.

For CN(C)CCCNC(=O)c1cccc(Nc2ncc(C(F)(F)F)c(NCc3cccnc3N(C)S(C)(=O)=O)n2)c1 [Compound 145, N-[3-(dimethylamino)propyl]-3-({4-(({2-[methyl(methylsulfonyl)amino]pyridin-3-yl}methyl)amino]-5-(trifluoromethyl)pyrimidin-2-yl}amino)benzamide], the IC50 was 2.54 nM.

Work on Cc1cc(Nc2ncc(C(F)(F)F)c(NCc3cccnc3N(C)S(C)(=O)=O)n2)on1 [Compound 289, N-methyl-N-{3-[({2-[(3-methylisoxazol-5-yl)amino)-5-(trifluoromethyl)pyrimidin-4-yl}amino)methyl]pyridin-2-yl}methanesulfonamide] yielded an IC50 of 18.2 nM.

For CC(N)c1ccc(Nc2ncc(C(F)(F)F)c(NCc3ccccc3N(C)S(C)(=O)=O)n2)cc1 (stereo in doubt) [Compound 362, N-[2-({[2-({4-[(1R)-1-aminoethyl]phenyl}amino)-5-(trifluoromethyl)pyrimidin-4-yl]amino}methyl)phenyl]-N-methylmethanesulfonamide], the IC50 was less than 0.595 nM.

With CN(c1ncccc1CNc1nc(Nc2ccc(C(=O)N3CCC[C@H](O)C3)cc2)ncc1C(F)(F)F)S(C)(=O)=O [Compound 260, N-{3-[({2-[(4-{[(3S)-3-hydroxypiperidin-1-yl]carbonyl}phenyl)amino]-5-(trifluoromethyl)pyrimidin-4-yl}amino)methyl]pyridin-2-yl}-N-methylmethanesulfonamide] the IC50 was 2.3 nM.

Work on COC(=O)c1ccc(Nc2ncc(C(F)(F)F)c(NCc3cccnc3N(C)S(C)(=O)=O)n2)cc1 [Compound 40, methyl 4-({4-[({2-[methyl(methylsulfonyl)amino]pyridin-3-yl}methyl)amino]-5-(trifluoromethyl)pyrimidin-2-yl}amino)benzoate] yielded an IC50 of 0.59 nM.

CN(c1cccc(CNc2nc(Nc3ccc(F)c(C(N)=O)c3)ncc2C(F)(F)F)c1)S(C)(=O)=O [Compound 379, 2-fluoro-5-{[4-({3-[methyl(methylsulfonyl)amino]benzyl}amino)-5-(trifluoromethyl)pyrimidin-2-yl]amino}benzamide] showed an IC50 of 4.78 nM.

Work on CN(c1ncccc1CNc1nc(Nc2cccc(C(=O)O)c2)ncc1C(F)(F)F)S(C)(=O)=O [Example 10, 3-({4-[({2-[methyl(methylsulfonyl)amino]pyridin-3-yl}methyl)amino]-5-(trifluoromethyl)pyrimidin-2-yl}amino)benzoic acid trifluoroacetic acid salt] yielded an IC50 of 0.6 nM.

CN(c1cccc(CNc2nc(Nc3ccc(C(N)=O)c(F)c3)ncc2C(F)(F)F)c1)S(C)(=O)=O [Compound 333, 2-fluoro-4-{[4-({3-[methyl(methylsulfonyl)amino]benzyl}amino)-5-(trifluoromethyl)pyrimidin-2-yl]amino}benzamide] was tested, and the IC50 was 2.14 nM.

Compound CN(c1ccnc(CNc2nc(Nc3ccc(C(N)=O)cc3)ncc2C(F)(F)F)c1)S(C)(=O)=O [Compound 404, 4-({4-[({4-[methyl(methylsulfonyl)amino]pyridin-2-yl}methyl)amino]-5-(trifluoromethyl)pyrimidin-2-yl}amino)benzamide] has an IC50 of 2.07 nM.

CN(c1ncccc1CNc1nc(Nc2cccc(C(=O)NC[C@H]3CCCO3)c2)ncc1C(F)(F)F)S(C)(=O)=O [Compound 117, 3-({4-[({2-[methyl(methylsulfonyl)amino]pyridin-3-yl}methyl)amino]-5-(trifluoromethyl)pyrimidin-2-yl}amino)-N-[(2R)-tetrahydrofuran-2-ylmethyl]benzamide] showed an IC50 of 1.47 nM.

COc1ccc(C(N)=O)cc1Nc1ncc(C(F)(F)F)c(NCc2ccc(C)nc2N(C)S(C)(=O)=O)n1 [Compound 305, 4-methoxy-3-({4-[({6-methyl-2-[methyl(methylsulfonyl)-amino]pyridin-3-yl}methyl)amino]-5-(trifluoromethyl)pyrimidin-2-yl}amino)benzamide] showed an IC50 of 0.646 nM.

Work on CN(c1ncccc1CNc1nc(Nc2cccc(C(=O)NCC3(C)COC3)c2)ncc1C(F)(F)F)S(C)(=O)=O [Compound 141, 3-({4-[({2-[methyl(methylsulfonyl)amino]pyridin-3-yl}methyl)amino]-5-(trifluoromethyl)pyrimidin-2-yl}amino)-N-[(3-methyloxetan-3-yl)methyl]benzamide] yielded an IC50 of 0.84 nM.

CS(=O)(=O)Nc1ccccc1CNc1nc(Nc2ccc(C(N)=O)cc2)ncc1C(F)(F)F [Compound 111, 4-{[4-({2-[(methylsulfonyl)amino]benzyl}amino)-5-(trifluoromethyl)pyrimidin-2-yl]amino}benzamide] was tested, and the IC50 was 0.6 nM.

CN(c1ncccc1CNc1nc(Nc2ccc(S(N)(=O)=O)cc2)ncc1C(F)(F)F)S(C)(=O)=O [Compound 16, 4-({4-[({2-[methyl(methylsulfonyl)amino]pyridin-3-yl}methyl)amino]-5-(trifluoromethyl)pyrimidin-2-yl}amino)benzenesulfon-amide] gave an IC50 of 4.09 nM.

In the case of COC(=O)c1ccc(Nc2ncc(C(F)(F)F)c(NCc3cccc(N(C(F)F)S(C)(=O)=O)c3)n2)cc1 [Compound 321, 4-{[4-({3-[(difluoromethyl)(methyl-sulfonyl)amino]benzyl}amino)-5-(trifluoromethyl)pyrimidin-2-yl]amino}benzoate], the IC50 is reported as 119 nM.

For CN(c1ncccc1CNc1nc(Nc2cccc(C(=O)NC3CCCOC3)c2)ncc1C(F)(F)F)S(C)(=O)=O (stereo not drawn) [Compound 119, 3-({4-[({2-[methyl(methylsulfonyl)amino]pyridin-3-yl}methyl)amlno]-5-(trifluoromethyl)pyrimidin-2-yl}amino)-N-(tetrahydro-2H-pyran-3-yl)benzamide], the IC50 was 1.14 nM.

Work on Cc1cnccc1Nc1ncc(C(F)(F)F)c(NCc2cccnc2N(C)S(C)(=O)=O)n1 [Compound 94, N-methyl-N-{3-[({2-[(3-methylpyridin-4-yl)amino]-5-(trifluoromethyl)pyrimidin-4-yl)amino)methyl]pyridin-2-yl]methanesulfonamide] yielded an IC50 of 8.01 nM.

Work on CN(c1cccc(CNc2nc(Nc3ccc(C(N)=O)c(Cl)c3)ncc2C(F)(F)F)c1)S(C)(=O)=O [Compound 357, 2-chloro-4-{[4-({3-[methyl(methylsulfonyl)amino]benzyl}amino)-5-(trifluoromethyl)pyrimidin-2-yl]amino}benzamide] yielded an IC50 of 1.47 nM.

CN(CCO)C(=O)c1ccc(Nc2ncc(C(F)(F)F)c(NCc3cccnc3N(C)S(C)(=O)=O)n2)cc1 [Compound 234, N-(2-hydroxyethyl)-N-methyl-4-({4-{({2-[methyl(methylsulfonyl)amino]pyridin-3-yl}methyl)amino]-5-(trifluoromethyl)pyrimidin-2-yl}amino)benzamide] was tested, and the IC50 was 2.32 nM.

CN(c1ncccc1CNc1nc(Nc2ccc(CCl)cc2)ncc1C(F)(F)F)S(C)(=O)=O [Example 7, N-(3-((2-(4-(chloromethyl)phenylamino)-5-(trifluoromethyl)pyrimidin-4-ylamino)methyl)pyridin-2-yl)-N-methylmethanesulfonamide] was tested, and the IC50 was 1.55 nM.

For CN1CCC(NC(=O)c2ccc(Nc3ncc(C(F)(F)F)c(NCc4cccnc4N(C)S(C)(=O)=O)n3)cc2)CC1 [Compound 250, 4-({4-[({2-[methyl(methylsulfonyl)amino]pyridin-3-yl}methyl)amino]-5-(trifluoromethyl)pyrimidin-2-yl}amino)-N-(1-methylpiperidin-4-yl)benzamide], the IC50 was 0.69 nM.

CN(C)CCNC(=O)c1cccc(Nc2ncc(C(F)(F)F)c(NCc3cccnc3N(C)S(C)(=O)=O)n2)c1 [Compound 205, N-[2-(dimethylamino)ethyl]-3-({4-[({2-[methyl(methylsulfonyl)amino]pyridin-3-yl}methyl)amino]-5-(trifluoromethyl)pyrimidin-2-yl}amino)benzamide] was tested, and the IC50 was 3.2 nM.

CN(c1ncccc1CNc1nc(Nc2ccc(C(=O)NCc3ccccn3)cc2)ncc1C(F)(F)F)S(C)(=O)=O [Compound 248, 4-({4-[({2-[methyl(methylsulfonyl)amino]pyridin-3-yl}methyl)amino]-5-(trifluoromethyl)pyrimidin-2-yl}amino)-N-(pyridin-2-ylmethyl)benzamide] was tested, and the IC50 was 9.35 nM.

With CC(=O)NCC(=O)NCc1cccc(Nc2ncc(C(F)(F)F)c(NCc3cccnc3N(C)S(C)(=O)=O)n2)c1 [Compound 223, N-2-acetyl-N-[3-({4-[({2-[methyl(methylsulfonyl)amino]pyridin-3-yl}methyl)amino]-5-(trifluoromethyl)pyrimidin-2-yl}amino)benzyl]glycinamide] the IC50 was 0.6 nM.

CN(c1nccnc1CNc1nc(Nc2ccc(C(N)=O)c(F)c2)ncc1C(F)(F)F)S(C)(=O)=O [Compound 327, 2-fluoro-4-({4-[({3-[methyl(methylsulfonyl)amino]pyrazin-2-yl}methyl)amino]-5-(trifluoromethyl)pyrimidin-2-yl}amino)benzamide] was tested, and the IC50 was 1.69 nM.

CN(c1ncccc1CNc1nc(Nc2nccc(N)n2)ncc1C(F)(F)F)S(C)(=O)=O [Compound 298, N-{3-[({2-[(4-aminopyrimidin-2-yl)amino]-5-(trifluoromethyl)pyrimidin-4-yl}amino)methyl]pyridin-2-yl}-N-methylmethane-sulfonamide] was tested, and the IC50 was 32.8 nM.

In the case of COc1ccc(Nc2ncc(C(F)(F)F)c(NCc3cccnc3N(C)S(C)(=O)=O)n2)cc1 [Compound 280, N-{3-[({2-[(4-methoxyphenyl)amino]-5-(trifluoromethyl)pyrimidin-4-yl}amino)methyl]pyridin-2-yl}-N-methylmethane-sulfonamide], the IC50 is reported as 0.6 nM.

CN(c1ncccc1CNc1nc(Nc2ccc(C(N)=O)c(F)c2)ncc1C(F)(F)F)S(C)(=O)=O [Example 13, 2-fluoro-4-({4-[({2-[methyl(methylsulfonyl)amino]pyridin-3-yl}methyl)amino]-5-(trifluoromethyl)pyrimidin-2-yl}amino)benzamide formic acid salt] gave an IC50 of less than 0.595 nM.
